What was measured:
[1] = tested on: PD-L1; experiment: PD-L1 phosphorylation sites by mass spectrometry in HEK293T cells transfected with Flag-PD-L1; type: cell-based, human; settings: Flag-PD-L1, 10 μM ES-072 48 h, MS-MS
Protocol: Fig. 2 Phosphorylation on S279/S283 impairs the stability of PD-L1. a Mapping PD-L1 phosphorylation sites following ES-072 treatment. HEK293T cells were transfected with Flag-PD-L1 and treated with 10 μM ES-072 for 48 h. Immunoprecipitated PD-L1 was analyzed by mass spectrometry following phosphopeptide enrichment. Peptide ionization data corresponding to Ser279/283 are shown. b Schematic diagram of phosphorylated sites on PD-L1. Full-length PD-L1 was separated into an extracellular domain (ECD) and intracellular domain (ICD). SP: signal peptide; TM: transmembrane domain. c Schematic diagram of phosphorylated sites, S279 and S283 in the ICD of PD-L1. Positions of phosphorylated sites were labeled in red. This image was created by the first author. d Immunoblots of PD-L1 (anti-Flag) in HEK293T cells transfected with Flag-PD-L1 (WT) or Flag-PD-L1 (mutants) following treatment with 25 ng/mL EGF and/or 10 μM ES-072 for 48 h, 2SA represents S279A/S283A. e Immunoblots of PD-L1 (anti-Flag) in HEK293T cells transfected with Flag-PD-L1 (WT/2SA) following treatment with 20 μg/mL cycloheximide (CHX) for indicated times. f Immunoblots of H1975 cell lysates following ES-072 treatment for 2 h, at indicated doses. g HEK293T cells were transfected with Flag-PD-L1 (WT/2SA) following treatment with 10 μM ES-072 for 2 h; PD-L1 was immunoprecipitated with anti-Flag and immunoblotted with indicated antibodies. Flag-tagged empty vector (Flag-EV) was transfected as a negative control. h Representative images of p-PD-L1 (Ser279) and PD-L1 immunohistochemistry (IHC) staining from EGFR wild-type vs. mutant human alveolar adenocarcinoma specimens. Scale bars represent 50 μm. i, j Quantification of IHC analysis for p-PD-L1 (Ser279) (i) and PD-L1 (j) in h. Data represent means ± SEM, n = 7 (i), n = 5 (j), **P < 0.01, P = 0.0013 (i); P = 0.002 (j). k Immunoblottings of p-PD-L1 (Ser279) and PD-L1 in EGFR wild-type (n = 4) vs. mutant (n = 4) human lung adenocarcinoma specimens. Source data are provided as a Source Data file.
Flag-tagged PD-L1 was overexpressed in HEK293T cells and were trypsin-digested. PD-L1 was immunoprecipitated with beads following immunoprecipitation. The resulting peptides were subjected to the phosphopeptide enrichment using TiO2 beads. The enriched phospho-peptides were analyzed on the Q Exactive™ HF mass spectrometer (Thermo Fisher Scientific). The identification and quantification of phosphorylated peptides were done by MaxQuant. The tandem mass spectra were searched against the UniProt human protein database together with a set of commonly observed contaminants. The precursor mass tolerance was set as 20 p.p.m. and the fragment mass tolerance was set as 0.1 Da. The […] cysteine carbamide methylation was set as a static modification and the methionine oxidation, as well as serine, threonine, and tyrosine phosphorylation, were set as variable modifications. The false discovery rate (FDR) at peptide spectrum match level was controlled below 1%.

[2] = target: JAK2 (Homo sapiens, UniProt O60674); experiment: In vitro kinase specificity profiling; type: biochemical
Chain of JAK2 (O60674 whole entry): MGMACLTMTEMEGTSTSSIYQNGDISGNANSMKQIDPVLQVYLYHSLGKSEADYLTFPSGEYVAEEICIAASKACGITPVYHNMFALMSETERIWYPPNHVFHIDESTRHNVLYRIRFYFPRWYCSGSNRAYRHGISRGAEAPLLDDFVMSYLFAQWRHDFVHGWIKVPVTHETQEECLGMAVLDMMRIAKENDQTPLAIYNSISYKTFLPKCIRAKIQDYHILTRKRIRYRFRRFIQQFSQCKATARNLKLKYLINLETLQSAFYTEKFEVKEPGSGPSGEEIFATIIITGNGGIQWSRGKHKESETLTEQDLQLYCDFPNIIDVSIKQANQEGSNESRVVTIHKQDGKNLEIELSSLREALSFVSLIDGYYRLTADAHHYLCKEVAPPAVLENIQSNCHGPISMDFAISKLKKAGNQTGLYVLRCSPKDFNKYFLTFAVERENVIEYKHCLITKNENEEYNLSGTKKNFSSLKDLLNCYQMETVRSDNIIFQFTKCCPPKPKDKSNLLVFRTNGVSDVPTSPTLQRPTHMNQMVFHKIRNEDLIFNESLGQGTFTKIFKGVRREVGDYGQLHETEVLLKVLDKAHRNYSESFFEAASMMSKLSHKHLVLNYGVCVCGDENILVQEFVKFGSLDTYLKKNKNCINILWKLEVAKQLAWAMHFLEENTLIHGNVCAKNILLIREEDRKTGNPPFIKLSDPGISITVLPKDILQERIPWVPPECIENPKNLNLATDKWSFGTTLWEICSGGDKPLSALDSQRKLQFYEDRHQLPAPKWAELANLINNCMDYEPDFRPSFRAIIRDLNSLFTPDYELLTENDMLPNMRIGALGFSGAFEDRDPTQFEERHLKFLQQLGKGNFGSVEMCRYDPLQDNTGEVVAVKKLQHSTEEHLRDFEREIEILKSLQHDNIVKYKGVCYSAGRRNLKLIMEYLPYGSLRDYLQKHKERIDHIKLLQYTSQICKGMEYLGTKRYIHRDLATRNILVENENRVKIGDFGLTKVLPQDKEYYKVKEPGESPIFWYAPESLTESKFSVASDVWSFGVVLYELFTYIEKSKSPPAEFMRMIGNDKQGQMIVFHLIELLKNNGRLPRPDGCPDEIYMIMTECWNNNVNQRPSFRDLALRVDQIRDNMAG

[3] = target: GSK3α (Homo sapiens, UniProt P49840); experiment: In vitro kinase specificity profiling for GSK3α; type: biochemical
Chain of GSK3α (P49840 whole entry): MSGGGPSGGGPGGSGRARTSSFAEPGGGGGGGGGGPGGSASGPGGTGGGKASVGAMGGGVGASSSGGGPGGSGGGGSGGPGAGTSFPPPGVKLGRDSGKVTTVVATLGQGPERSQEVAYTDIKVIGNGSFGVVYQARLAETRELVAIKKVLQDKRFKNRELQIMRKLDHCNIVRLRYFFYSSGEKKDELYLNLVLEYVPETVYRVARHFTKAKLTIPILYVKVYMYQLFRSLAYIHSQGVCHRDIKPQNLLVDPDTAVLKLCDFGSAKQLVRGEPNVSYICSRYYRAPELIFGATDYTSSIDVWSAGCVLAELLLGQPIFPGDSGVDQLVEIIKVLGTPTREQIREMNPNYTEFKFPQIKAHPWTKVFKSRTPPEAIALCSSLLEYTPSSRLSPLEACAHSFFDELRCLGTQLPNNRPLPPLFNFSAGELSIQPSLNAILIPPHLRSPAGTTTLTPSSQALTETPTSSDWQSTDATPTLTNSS

[4] = target: EGFR L858R (Homo sapiens, UniProt P00533, L858R); experiment: In vitro kinase specificity profiling; type: biochemical
[5] = target: CDK6 (Homo sapiens, UniProt Q00534); experiment: In vitro kinase specificity profiling; type: biochemical
Chain of CDK6 (Q00534 whole entry, species assumed): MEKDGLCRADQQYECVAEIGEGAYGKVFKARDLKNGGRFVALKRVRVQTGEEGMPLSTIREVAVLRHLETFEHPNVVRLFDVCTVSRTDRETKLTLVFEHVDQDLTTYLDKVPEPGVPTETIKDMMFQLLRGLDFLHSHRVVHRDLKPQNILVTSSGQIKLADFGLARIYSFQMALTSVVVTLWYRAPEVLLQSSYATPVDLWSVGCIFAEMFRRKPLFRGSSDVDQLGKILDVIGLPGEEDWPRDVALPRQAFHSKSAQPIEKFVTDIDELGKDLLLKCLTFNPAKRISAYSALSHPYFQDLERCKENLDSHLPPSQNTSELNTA
Chain of CDK6 (P30281 whole entry partner, species assumed): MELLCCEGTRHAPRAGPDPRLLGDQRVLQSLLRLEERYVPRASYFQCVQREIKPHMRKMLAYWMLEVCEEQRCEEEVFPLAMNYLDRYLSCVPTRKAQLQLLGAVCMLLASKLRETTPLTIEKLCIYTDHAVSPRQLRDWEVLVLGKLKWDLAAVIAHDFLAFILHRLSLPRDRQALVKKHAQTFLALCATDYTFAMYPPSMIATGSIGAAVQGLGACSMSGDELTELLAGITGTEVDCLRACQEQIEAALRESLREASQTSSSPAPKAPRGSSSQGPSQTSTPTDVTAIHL

[6] = target: IGF1R (Homo sapiens, UniProt P08069); experiment: In vitro kinase specificity profiling; type: biochemical
Chain of IGF1R (P08069 31-1367, species assumed): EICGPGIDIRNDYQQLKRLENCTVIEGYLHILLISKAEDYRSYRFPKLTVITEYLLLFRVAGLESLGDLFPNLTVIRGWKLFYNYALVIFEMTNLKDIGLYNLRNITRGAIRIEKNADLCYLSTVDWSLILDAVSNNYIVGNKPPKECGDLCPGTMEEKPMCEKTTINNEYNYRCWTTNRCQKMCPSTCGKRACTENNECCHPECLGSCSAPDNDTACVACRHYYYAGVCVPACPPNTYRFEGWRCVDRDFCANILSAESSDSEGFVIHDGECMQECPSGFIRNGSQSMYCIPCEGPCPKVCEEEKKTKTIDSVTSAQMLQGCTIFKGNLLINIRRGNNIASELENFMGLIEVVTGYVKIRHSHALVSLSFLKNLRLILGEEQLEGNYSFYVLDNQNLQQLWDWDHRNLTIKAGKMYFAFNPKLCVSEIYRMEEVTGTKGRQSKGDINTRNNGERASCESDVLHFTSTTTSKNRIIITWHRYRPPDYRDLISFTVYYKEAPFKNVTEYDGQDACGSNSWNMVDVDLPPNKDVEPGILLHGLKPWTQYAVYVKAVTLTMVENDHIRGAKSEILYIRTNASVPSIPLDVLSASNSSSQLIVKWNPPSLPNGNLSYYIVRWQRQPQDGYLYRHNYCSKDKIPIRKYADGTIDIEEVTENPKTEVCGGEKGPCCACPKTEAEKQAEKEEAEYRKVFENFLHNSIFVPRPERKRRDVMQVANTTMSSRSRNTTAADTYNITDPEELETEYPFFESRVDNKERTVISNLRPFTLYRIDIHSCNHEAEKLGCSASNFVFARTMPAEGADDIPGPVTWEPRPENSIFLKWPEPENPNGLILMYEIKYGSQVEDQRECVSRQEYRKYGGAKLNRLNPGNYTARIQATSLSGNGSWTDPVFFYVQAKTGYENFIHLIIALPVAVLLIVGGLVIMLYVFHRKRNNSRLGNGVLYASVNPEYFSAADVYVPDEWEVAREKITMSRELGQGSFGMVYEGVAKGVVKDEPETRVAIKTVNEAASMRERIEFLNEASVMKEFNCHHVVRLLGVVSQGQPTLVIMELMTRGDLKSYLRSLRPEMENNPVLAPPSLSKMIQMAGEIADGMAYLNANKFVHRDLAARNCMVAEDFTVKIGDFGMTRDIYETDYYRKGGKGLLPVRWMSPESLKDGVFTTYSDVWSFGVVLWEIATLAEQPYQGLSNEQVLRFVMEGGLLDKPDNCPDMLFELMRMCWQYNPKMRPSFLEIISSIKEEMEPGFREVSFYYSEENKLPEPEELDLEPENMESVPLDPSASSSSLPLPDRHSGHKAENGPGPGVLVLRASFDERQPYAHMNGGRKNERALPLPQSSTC

[7] = target: KDR(VEGFR2) (Homo sapiens, UniProt P35968); experiment: In vitro kinase specificity profiling; type: biochemical
Chain of KDR(VEGFR2) (P35968 20-1356, species assumed): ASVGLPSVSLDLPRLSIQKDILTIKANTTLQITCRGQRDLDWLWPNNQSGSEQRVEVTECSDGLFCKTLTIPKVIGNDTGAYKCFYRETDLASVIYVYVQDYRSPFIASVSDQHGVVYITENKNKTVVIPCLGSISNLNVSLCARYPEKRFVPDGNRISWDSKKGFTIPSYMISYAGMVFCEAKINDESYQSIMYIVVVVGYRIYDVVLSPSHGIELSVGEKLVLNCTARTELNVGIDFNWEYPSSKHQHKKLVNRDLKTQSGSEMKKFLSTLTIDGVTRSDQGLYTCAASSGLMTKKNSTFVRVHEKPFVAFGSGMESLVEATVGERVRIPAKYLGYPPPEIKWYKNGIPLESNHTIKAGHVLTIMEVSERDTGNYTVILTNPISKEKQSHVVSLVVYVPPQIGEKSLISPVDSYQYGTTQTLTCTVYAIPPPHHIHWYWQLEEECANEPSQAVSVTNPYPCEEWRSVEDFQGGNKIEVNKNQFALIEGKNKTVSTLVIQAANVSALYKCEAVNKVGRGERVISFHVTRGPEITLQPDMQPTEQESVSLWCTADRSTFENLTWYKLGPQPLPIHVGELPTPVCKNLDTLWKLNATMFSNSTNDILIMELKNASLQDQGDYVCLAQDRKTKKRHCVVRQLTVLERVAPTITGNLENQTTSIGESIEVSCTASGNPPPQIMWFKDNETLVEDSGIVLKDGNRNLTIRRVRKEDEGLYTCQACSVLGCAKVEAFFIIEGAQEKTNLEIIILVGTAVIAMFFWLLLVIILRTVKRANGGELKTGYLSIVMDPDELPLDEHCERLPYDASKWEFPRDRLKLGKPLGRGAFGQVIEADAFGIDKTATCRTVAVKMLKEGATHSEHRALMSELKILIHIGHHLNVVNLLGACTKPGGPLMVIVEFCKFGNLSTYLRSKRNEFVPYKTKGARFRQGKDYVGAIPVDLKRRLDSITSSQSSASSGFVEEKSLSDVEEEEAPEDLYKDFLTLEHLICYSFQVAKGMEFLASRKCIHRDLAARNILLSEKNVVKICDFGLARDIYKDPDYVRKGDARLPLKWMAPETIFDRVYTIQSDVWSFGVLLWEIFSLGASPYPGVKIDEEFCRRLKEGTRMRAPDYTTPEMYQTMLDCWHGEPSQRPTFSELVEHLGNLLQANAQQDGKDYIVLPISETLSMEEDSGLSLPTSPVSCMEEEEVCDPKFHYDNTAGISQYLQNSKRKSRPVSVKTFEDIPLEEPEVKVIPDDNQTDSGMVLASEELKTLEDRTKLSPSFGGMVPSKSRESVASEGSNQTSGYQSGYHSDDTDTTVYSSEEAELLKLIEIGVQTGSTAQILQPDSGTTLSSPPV

[8] = target: HER2 (Homo sapiens, UniProt P04626); experiment: In vitro kinase specificity profiling; type: biochemical
[9] = target: CDK4 (Homo sapiens, UniProt P11802); experiment: In vitro kinase specificity profiling; type: biochemical
[10] = target: CMET (Homo sapiens, UniProt P08581); experiment: In vitro kinase specificity profiling; type: biochemical
[11] = target: EGFR T790M (Homo sapiens, UniProt P00533, T790M); experiment: In vitro kinase specificity profiling; type: biochemical

For `C=CC(=O)Nc1cccc(Nc2nc(Nc3ccc(N4CCN(C)CC4)nc3OC)ncc2C(F)(F)F)c1` [ES-072], the “ES/NC (PD-L1 phosphorylation site S79)” value [1] was 1.28, the “ES/NC (PD-L1 phosphorylation site S93)” value [1] was 1.52 and the “ES/NC (PD-L1 phosphorylation site S170)” value [1] was 0.00. The “ES/NC (PD-L1 phosphorylation site S176)” value [1] was 0.00, the “ES/NC (PD-L1 phosphorylation site S279)” value [1] was 5.00 and the “ES/NC (PD-L1 phosphorylation site S283)” value [1] was 2.06. For the same compound, the “ES/NC (PD-L1 phosphorylation site T290)” value [1] was 1.95, the IC50 [2] was 4.96 µM and the IC50 ([3]; as worded in response to reviewers) was greater than 40 µM. The IC50 ([3]; single independent tests) was greater than 40 µM, the IC50 [4] was 0.0027 µM and the IC50 [5] was greater than 10 µM. For the same compound, the IC50 [6] was 0.127 µM, the IC50 [7] was 5.23 µM and the IC50 [8] was 0.147 µM. For the same compound, the IC50 [9] was greater than 10 µM, the IC50 [10] was greater than 10 µM and the IC50 [11] was less than 0.0005 µM.
